Data taken from patent publication US5583127A, “17-iminomethylalkenyl-5 β, 14 β-androstane and 17-iminoalkyl-5 β, 14 β-androstane derivatives active on the cardiovascular system, and pharmaceutical compositions containing same” (Sigma-Tau Industrie Farmaceutiche Riunite S.p.A., priority 1993, dated 1996).
Where two headings read alike, the source gives them in different places.

How the values were obtained:
[1] = biological target: purified Na^+,K^+ -ATPase (Homo sapiens, UniProt P05023); experiment: inhibition of the activity of the purified Na+,K+-ATPase (% hydrolysis of 32P-ATP); type: biochemical
[2] = biological target: Na^+, K^+ -ATPase receptor (Homo sapiens, UniProt P05023); experiment: displacement of the specific 3H-ouabain binding from the Na+,K+-ATPase receptor
[3] = purified Na+,K+-ATPase, read-out: Inhibitory Activity log IC50 (converted)
[4] = displacement of specific 3H-ouabain binding, read-out: Binding ^3 H-Ouab. Displacement log IC50 (converted)
[5] = read-out: Inhibitory Activity log IC50 (converted)

C[C@]12CC[C@H](O)C[C@H]1CC[C@@H]1[C@@H]2CC[C@]2(C)[C@@H](CCC=NNC(=N)N)CC[C@]12O (mixture of isomers) [Comp. 1-bi, (EZ)-17β-(3-Guanidinoiminopropyl)-5β-androstane-3β,14β-diol]
IC50 [1, 3]: 2000 nM | IC50 [2, 4]: 126 nM

CN(C)CCON=C/C=C/[C@H]1CC[C@]2(O)[C@@H]3CC[C@@H]4C[C@@H](OCCCN)CC[C@]4(C)[C@H]3CC[C@]12C (mixture of isomers) [Comp. 1-ce, 3β-(3-Aminopropoxy)-17β-[3-(EZ)-(2-dimethylaminoethoxy-imino)-1-(E)-propenyl]-5β-androstane-14β-ol]
IC50 [1, 3]: 20 nM | IC50 [2, 4]: 15.8 nM

CN(C)CCON=C/C=C/[C@H]1CC[C@]2(O)[C@@H]3CC[C@@H]4C[C@@H](O)CC[C@]4(C)[C@H]3CC[C@]12C (mixture of isomers) [Comp. I-aq, 17β-[3-(EZ)-(2-Dimethylaminoethoxyimino)-1-(E)-propenyl]-5β-androstane-3β,14β-diol]
IC50 [1, 3]: 31.6 nM | IC50 [2, 4]: 25.1 nM

CN(C)CCCON=C/C=C/[C@H]1CC[C@]2(O)[C@@H]3CC[C@@H]4C[C@@H](O)CC[C@]4(C)[C@H]3CC[C@]12C (mixture of isomers) [Comp. I-ar, 17β-[3-(3-(EZ)-Dimethylaminopropoxyimino)-1-(E)-propenyl]-5β-androstane-3β,14β-diol]
IC50 [1, 3]: 126 nM | IC50 [2, 4]: 63.1 nM

C[C@]12CC[C@H](O)C[C@H]1CC[C@@H]1[C@@H]2CC[C@]2(C)[C@@H](/C=C/C=NOCCNC(=N)N)CC[C@]12O (mixture of isomers) [Comp. I-as, 17β-[3-(EZ)-(2-Guanidinoethoxyimino)-1-(E)-propenyl]-5β-androstane-3β,14β-diol]
IC50 [1, 3]: 158 nM | IC50 [2]: 100 nM

C[C@]12CC[C@H](O)C[C@H]1CC[C@@H]1[C@@H]2CC[C@]2(C)[C@@H](/C=C/C=NOCCCNC(=N)N)CC[C@]12O (mixture of isomers) [Comp. I-at, 17β-[3-(EZ)-(3-Guanidinopropoxyimino)-1-(E)-propenyl]-5β-androstane-3β,14β-diol]
IC50 [1, 3]: 316 nM | IC50 [2, 4]: 158 nM

C[C@]12CC[C@H](O)C[C@H]1CC[C@@H]1[C@@H]2CC[C@]2(C)[C@@H](CC=NNC(=N)N)CC[C@]12O (mixture of isomers) [Comp. I-bc, (EZ)-17β-(2-Guaidinoimino)ethyl-5β-androstane-3β,14β-diol]
IC50 [1, 3]: 398 nM | IC50 [2, 4]: 79.4 nM

C[C@]12CC[C@H](O)C[C@H]1CC[C@@H]1[C@@H]2CC[C@]2(C)[C@@H](CC=NNC3=NCCN3)CC[C@]12O (mixture of isomers) [Comp. I-bd, (EZ)-17β-[2-(2-Imidazolin-2-yl)hydrazonoethyl]-5β-androstane-3β,14β-diol]
IC50 [1, 3]: 631 nM | IC50 [2, 4]: 126 nM

C[C@]12CC[C@H](O)C[C@H]1CC[C@@H]1[C@@H]2CC[C@]2(C)[C@@H](CC=NOCCN)CC[C@]12O (mixture of isomers) [Comp. I-bf, (EZ)-17β-[2-(2-Aminoethoxyimino)ethyl]-5β-androstane-3β,14β-diol]
IC50 [1, 3]: 316 nM | IC50 [2, 4]: 25.1 nM

C[C@]12CC[C@H](O)C[C@H]1CC[C@@H]1[C@@H]2CC[C@]2(C)[C@@H](CC=NOCCCN)CC[C@]12O (mixture of isomers) [Comp. I-bg, (EZ)-17β-[2-(3-Aminopropoxyimino)ethyl]-5β-androstane-3β,14β-diol]
IC50 [1, 3]: 398 nM | IC50 [2]: 50.1 nM

CN(C)CCON=CC[C@H]1CC[C@]2(O)[C@@H]3CC[C@@H]4C[C@@H](O)CC[C@]4(C)[C@H]3CC[C@]12C (mixture of isomers) [Comp. I-bh, (EZ)-17β-[2-(2-Dimethylaminoethoxyimino)ethyl]-5β-androstane-3β,14β-diol]
IC50 [1, 3]: 631 nM | IC50 [2, 4]: 39.8 nM

C[C@]12CC[C@H](O)C[C@H]1CC[C@@H]1[C@@H]2CC[C@]2(C)[C@@H](CCC=NNC3=NCCN3)CC[C@]12O (mixture of isomers) [Comp. I-bj, (EZ)-17β-[3-(2-Imidazolin-2-yl)hydrazonopropyl]-5β-androstane-3β,14β-diol]
IC50 [1, 5]: 3160 nM | IC50 [2, 4]: 251 nM

C[C@]12CC[C@H](O)C[C@H]1CC[C@@H]1[C@@H]2CC[C@]2(C)[C@@H](CCC=NOCCN)CC[C@]12O (mixture of isomers) [Comp. I-bm, (EZ)-17β-[3-(2-Aminoethoxyimino)propyl]-5β-androstane-3β,14β-diol]
IC50 [1, 3]: 79.4 nM | IC50 [2, 4]: 25.1 nM

CN(C)CCON=CCC[C@H]1CC[C@]2(O)[C@@H]3CC[C@@H]4C[C@@H](O)CC[C@]4(C)[C@H]3CC[C@]12C (mixture of isomers) [Comp. I-bn, (EZ)-17β-[3-(2-Dimethylaminoethoxyimino)propyl]-5β-androstane-3β,14β-diol]
IC50 [1, 3]: 100 nM | IC50 [2, 4]: 25.1 nM

CN(C)CCON=CC[C@@]1(O)CC[C@]2(O)[C@@H]3CC[C@@H]4C[C@@H](O)CC[C@]4(C)[C@H]3CC[C@]12C (mixture of isomers) [Comp. I-bt, (EZ)-17β-[2-(2-Dimethylaminoethoxyimino)ethyl]-5β-androstane-3β,14β,17α-triol]
IC50 [1, 3]: 10000 nM | IC50 [2, 4]: 794 nM

CN(C)CCON=C/C=C/[C@H]1CC[C@]2(O)[C@@H]3CC[C@@H]4C[C@@H](OCCN5CCCC5)CC[C@]4(C)[C@H]3CC[C@]12C (mixture of isomers) [Comp. I-by, 3β-[2-(1-Pyrrolidinyl)ethoxy]-17β-[3-(EZ)-(2-dimethylamino-ethoxyimino)-1-(E)-propenyl]-5β-androstane-14β-ol]
IC50 [1, 3]: 31.6 nM | IC50 [2, 4]: 20 nM

CC(CO[C@H]1CC[C@@]2(C)[C@H](CC[C@@H]3[C@@H]2CC[C@]2(C)[C@@H](/C=C/C=NOCCN(C)C)CC[C@]32O)C1)N1CCCC1 (mixture of isomers) [Comp. I-ca, 3β-[2-(1-Pyrrolidinyl)propoxy]-17β-[3-(EZ)-(2-dimethylamino-ethoxyimino)-1-(E)-propenyl]-5β-androstane-14β-ol]
IC50 [1, 3]: 39.8 nM | IC50 [2, 4]: 31.6 nM

C[C@]12CC[C@H](OCCN)C[C@H]1CC[C@@H]1[C@@H]2CC[C@]2(C)[C@@H](/C=C/C=NNC(=N)N)CC[C@]12O (mixture of isomers) [Comp. I-cb]
IC50 [1, 3]: 100 nM | IC50 [2, 4]: 20 nM

CN(C)CCON=C/C=C/[C@H]1CC[C@]2(O)[C@@H]3CC[C@@H]4C[C@@H](OCCN)CC[C@]4(C)[C@H]3CC[C@]12C (mixture of isomers) [Comp. I-cc, 3β-(2-Aminoethoxy)-17β-[3-(EZ)-(2-dimethylaminoethoxyimino)-1-(E)-propenyl]-5_62-androstane-14β-ol]
IC50 [1, 3]: 31.6 nM | IC50 [2, 4]: 20 nM

CN(C)CCON=CC[C@H]1CC[C@]2(O)[C@@H]3CC[C@@H]4C[C@@H](OCCN5CCCC5)CC[C@]4(C)[C@H]3CC[C@]12C (mixture of isomers) [Comp. I-cg, 3β-[2-(1-Pyrrolidinyl)ethoxy]-17β-[3-(EZ)-(2-dimethylamino-ethoxyimino)ethyl]-5β-androstane-14β-ol]
IC50 [1, 3]: 100 nM | IC50 [2, 4]: 31.6 nM

CN(C)CCON=CC[C@H]1CC[C@]2(O)[C@@H]3CC[C@@H]4C[C@@H](OCCCN5CCCC5)CC[C@]4(C)[C@H]3CC[C@]12C (mixture of isomers) [Comp. I-ci, 3β-[3-(1-Pyrrolidinyl)propoxy]-17β-[3-(EZ)-(2-dimethylamino-ethoxyimino)ethyl]-5β-androstane-14β-ol]
IC50 [1, 3]: 158 nM | IC50 [2]: 50.1 nM

CN(C)CCON=CC[C@H]1CC[C@]2(O)[C@@H]3CC[C@@H]4C[C@H](O)CC[C@]4(C)[C@H]3CC[C@]12C (mixture of isomers) [Comp. I-cm, (EZ)-17β-[2-(2-Dimethylaminoethoxyimino)ethyl]-5β-androstane-3α,14β-diol]
IC50 [1, 5]: 1000 nM | IC50 [2, 4]: 100 nM

C[C@]12CC[C@H](O)C[C@H]1CC[C@@H]1[C@@H]2CC[C@]2(C)[C@@](O)(/C=C/C=N/NC(=N)N)CC[C@]12O [Comp. 1-bo, (E,E)-17β-(3-Guanidinoimino-1-propenyl)-5β-androstane-3β,14β,17α-triol]
IC50 [1, 3]: 10000 nM | IC50 [2, 4]: 501 nM

C[C@]12CC[C@H](O)C[C@H]1CC[C@@H]1[C@@H]2CC[C@]2(C)[C@@H](/C=C/C=N\NC(=N)N)CC[C@]12O [Comp. I-ab, 17β-[3-(Z)-Guanidinoimino-1-(E)-propenyl]-5β-androstane-3β,14β-diol]
IC50 [1, 5]: 3160 nM | IC50 [2, 4]: 316 nM

C[C@]12CC[C@H](O)C[C@H]1CC[C@@H]1[C@@H]2CC[C@]2(C)[C@@H](/C=C/C=N/NC3=NCCN3)CC[C@]12O [Comp. I-ac, (E,E)-17β-[3-(2-Imidazolin-2-yl)hydrazono-1-propenyl]-5β-androstane-3β,14β-diol]
IC50 [2]: 50.1 nM

C[C@]12CC[C@H](O)C[C@H]1CC[C@@H]1[C@@H]2CC[C@]2(C)[C@@H](/C=C/C=N\NC3=NCCN3)CC[C@]12O [Comp. I-ad, 17β-[3-(Z)-(2-Imidazolin-2-yl)hydrazono-1-(E)-propenyl]-5β-androstane-3β,14β-diol]
IC50 [2]: 631 nM

CN1CCN=C1N/N=C/C=C/[C@H]1CC[C@]2(O)[C@@H]3CC[C@@H]4C[C@@H](O)CC[C@]4(C)[C@H]3CC[C@]12C [Comp. I-ae, (E,E)-17β-[3-(1-Methyl-2-imidazolin-2-yl)hydrazono-1-propenyl]-5β-androstane-3β,14β-diol]
IC50 [1]: 2510 nM | IC50 [2]: 158 nM

C[C@]12CC[C@H](O)C[C@H]1CC[C@@H]1[C@@H]2CC[C@]2(C)[C@@H](/C=C/C=N/NC3=NCC(=O)N3)CC[C@]12O [Comp. I-af, (E,E)-17β-[3-(5-Oxo-2-imidazolin-2-yl)hydrazono-1-propenyl]-5β-androstane-3β,14β-diol]
IC50 [1, 3]: 39800 nM | IC50 [2, 4]: 2000 nM

C[C@]12CC[C@H](O)C[C@H]1CC[C@@H]1[C@@H]2CC[C@]2(C)[C@@H](/C=C/C=C/C=N/N=C(N)N)CC[C@]12O [Comp. I-au]
IC50 [2, 4]: 501 nM

C[C@]12CC[C@H](O)C[C@H]1CC[C@@H]1[C@@H]2CC[C@]2(C)[C@@H](/C=C/C=C/C=N/NC3=NCCCN3)CC[C@]12O [Comp. I-aw, (E,E,E)-17β-[5-(1,4,5,6-Tetrahydro-2-pyrimidinyl)hydrazono-1,3-pentadienyl]-5β-androstane-3β,14β-diol]
IC50 [1, 5]: 15800 nM
